Our source for the inhibition values is patent US20080255192A1, “Methods and Compositions for Selectin Inhibition” (Wyeth, priority 2007, published 2008).

The target of this experiment is T1, P-selectin/PSGL-1 interaction (Homo sapiens, UniProt P16109).
T1 construct: comprised of the lectin and epidermal growth factor-like (EGF) domains expressed in CHO cells; made in house; host or cells: CHO cells (P-LE)
T1 sequence (P16109 42-198): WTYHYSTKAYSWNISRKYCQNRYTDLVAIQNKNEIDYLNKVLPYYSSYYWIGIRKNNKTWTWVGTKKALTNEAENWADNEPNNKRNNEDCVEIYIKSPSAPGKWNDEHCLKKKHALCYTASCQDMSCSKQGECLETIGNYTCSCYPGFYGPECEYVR
Briefly: Biacore P-Selectin/PSGL-1 Inhibition Assay (surface plasmon resonance). The following applies: 250 uM test compound, 500 nM P.LE, immobilized PSGL-1 19ek, 10% DMSO, pH 7.4. In kind it is binding. The method, boiled down: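 Biotinylated monomeric human PSGL-1 "19ek" on streptavidin chip (600–700 RU); compounds preincubated 1 h, then mixed with 500 nM P-LE (lectin-EGF, CHO-expressed) at 250 or 500 μM compound, 10% DMSO, HEPES buffer with 1 mM CaCl2/MgCl2, pH 7.4. SPR at 25 °C; percent binding inhibition from double-referenced signals.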
In general terms: SPR reads the build-up and loss of mass on a sensor chip optically.
As to `Cc1ccc2c(C(=O)O)c(O)c(C(C)(C)c3ccc(Cl)cc3)nc2c1C` [Compound 121, 2-(2-(4-Chlorophenyl)propan-2-yl)-3-hydroxy-7,8-dimethylquinoline-4-carboxylic acid], the inhibition at 250 µM stood at 56%. The value for `CC(C)(c1ccc(Cl)cc1)c1nc2c(C(O)(C(F)(F)F)C(F)(F)F)cccc2c(C(=O)O)c1O` [Compound 122, 2-(2-(4-chlorophenyl)propan-2-yl)-8-(1,1,1,3,3,3-hexafluoro-2-hydroxypropan-2-yl)-3-hydroxyquinoline-4-carboxylic acid] was ≤ 10%. `CC(c1ccccc1)c1nc2c(C(F)(F)F)cccc2c(C(=O)O)c1O` (stereo not drawn) [Compound 123, 3-hydroxy-2-(1-phenylethyl)-8-(trifluoromethyl)quinoline-4-carboxylic acid] displayed an inhibition at 250 µM of 49%.

For the molecule `CC(c1ccc(Cl)cc1)c1nc2c3c(ccc2c(C(=O)O)c1O)CCCC3` (stereo not drawn) [Compound 124, 2-(1-(4-chlorophenyl)ethyl)-3-hydroxy-7,8,9,10-tetrahydrobenzo[h]quinoline-4-carboxylic acid], the inhibition at 250 µM is ≤ 10%. On to `CC(c1ccccc1)c1nc2c3c(ccc2c(C(=O)O)c1O)CCCC3` (stereo not drawn) [Compound 125, 3-Hydroxy-2-(1-phenylethyl)-7,8,9,10-tetrahydrobenzo[h]quinoline-4-carboxylic acid], for which the inhibition at 250 µM was 90%. Take `CCC(c1ccccc1)c1nc2c(C(F)(F)F)cccc2c(C(=O)O)c1O` (stereo not drawn) [Compound 126, 3-Hydroxy-2-(1-phenylpropyl)-8-(trifluoromethyl)quinoline-4-carboxylic acid]: the inhibition at 250 µM was determined as 61%. The molecule `CCC(c1ccccc1)c1nc2c(C(C)C)cccc2c(C(=O)O)c1O` (stereo not drawn) [Compound 127, 3-Hydroxy-8-isopropyl-2-(1-phenylpropyl)quinoline-4-carboxylic acid] displayed an inhibition at 250 µM of 65%. Consider `CCC(c1ccccc1)c1nc2c(C)c(C)ccc2c(C(=O)O)c1O` (stereo not drawn) [Compound 128, 3-Hydroxy-7,8-dimethyl-2-(1-phenylpropyl)quinoline-4-carboxylic acid], for which at 250 µM the inhibition was 64%.

`CC(C)C(c1ccccc1)c1nc2c(C(F)(F)F)cccc2c(C(=O)O)c1O` (stereo not drawn) [Compound 129, 3-Hydroxy-2-(2-methyl-1-phenylpropyl)-8-(trifluoromethyl)quinoline-4-carboxylic acid] displayed an inhibition at 250 µM of 60%. `CC(C)c1cccc2c(C(=O)O)c(O)c(C(c3ccccc3)C(C)C)nc12` (stereo not drawn) [Compound 130, 3-Hydroxy-8-isopropyl-2-(2-methyl-1-phenylpropyl)quinoline-4-carboxylic acid]: the inhibition at 250 µM came to 40%. On to `Cc1ccc2c(C(=O)O)c(O)c(C(c3ccccc3)C(C)C)nc2c1C` (stereo not drawn) [Compound 131, 3-Hydroxy-7,8-dimethyl-2-(2-methyl-1-phenylpropyl)quinoline-4-carboxylic acid], for which the inhibition at 250 µM amounted to 90%. Take `CC(Cc1ccccc1)c1nc2c(C(F)(F)F)cccc2c(C(=O)O)c1O` (stereo not drawn) [Compound 132, 3-Hydroxy-2-(1-Phenylpropan-2-yl)-8-(trifluoromethyl)quinoline-4-carboxylic acid]: the inhibition at 250 µM is 49%. `CC(C)c1cccc2c(C(=O)O)c(O)c(C(C)Cc3ccccc3)nc12` (stereo not drawn) [Compound 133, 3-Hydroxy-8-isopropyl-2-(1-phenylpropan-2-yl)quinoline-4-carboxylic acid] displayed an inhibition at 250 µM of 64%. The value for `Cc1ccc2c(C(=O)O)c(O)c(C(C)Cc3ccccc3)nc2c1C` (stereo not drawn) [Compound 134, 3-Hydroxy-7,8-dimethyl-2-(1-phenylpropan-2-yl)quinoline-4-carboxylic acid] was 49%; that for `CC(Cc1nc2c(C(F)(F)F)cccc2c(C(=O)O)c1O)c1ccccc1` (stereo not drawn) [Compound 135, 3-Hydroxy-2-(2-phenylpropyl)-8-(trifluoromethyl)quinoline-4-carboxylic acid] was 46%; that for `CC(C)c1cccc2c(C(=O)O)c(O)c(CC(C)c3ccccc3)nc12` (stereo not drawn) [Compound 136, 3-Hydroxy-8-isopropyl-2-(2-phenylpropyl)quinoline-4-carboxylic acid] was 64%. In the case of `Cc1ccc2c(C(=O)O)c(O)c(CC(C)c3ccccc3)nc2c1C` (stereo not drawn) [Compound 137, 3-Hydroxy-7,8-dimethyl-2-(2-phenylpropyl)quinoline-4-carboxylic acid] it was 31%; in that of `O=C(O)c1c(OC(=O)N2CCOCC2)c(Cc2ccc(Cl)cc2)nc2c3c(ccc12)CCCC3` [Compound 138, 2-(4-Chlorobenzyl)-3-[(morpholin-4-ylcarbonyl)oxy]-7,8,9,10-tetrahydrobenzo[h]quinoline-4-carboxylic acid], 16%.

As a reminder, the inhibition is the change of the read-out against control, counted positive when it falls. A higher inhibition goes with strong suppression.
